# PMC11851433, “Novel Quinazoline Derivatives Inhibit Splicing of Fungal Group II Introns” (ACS Chemical Biology, 2025)
# Where two headings read alike, the source gives them in different places.
# How the values were obtained:
# HEK-293T cells = assay: Cytotoxicity in HEK-293T cells (Cell Titer Glo); assay type: cell-based; conditions: Homo sapiens, read-out: IC50 for cell growth inhibition
# Protocol: For the cytotoxicity experiments, cells were aliquoted into black 96-well plates with a clear bottom (Corning 3603), grown, treated with the inhibitors, and subjected to the Cell Titer Glo cell viability assay (Promega) as previously described.[33] All experiments were performed in triplicate.
# ai5γ group II intron [1] = assay: Radioanalytic in vitro splicing assay, splicing inhibition constants; assay type: biochemical, Saccharomyces cerevisiae; conditions: for improvement of inhibitory activity (Ki) relative to compound 3: vs compound 3
# Protocol: Internally ^32P-labeled ai5γ intron RNA with short exons[54] was in vitro transcribed in the presence of ^32P-α-UTP using T7 RNA polymerase and purified on a 5% denaturing polyacrylamide gel as described.[55] Large-scale transcription of the […] ribozyme, utilized for HTS, was carried out as previously described.[56] Splicing inhibition constants were determined as previously described[33],[34] with the following change in the experimental procedure: reactions were carried out in a buffer of 50 mM MOPS pH 7.5, 100 mM MgCl2, and 500 mM KCl at 42 °C. Aliquots of the reaction mixture were withdrawn at different time points, quenched, and analyzed on a 5% denaturing polyacrylamide gel as previously described.[55] Inhibition constants were determined as previously described.[33],[34] Experiments were performed twice to ensure reproducibility. Data represent average ± s.e.m.
# D135 ribozyme = assay: HTS / dose–response intron activity assay (fluorescently labeled substrate, D135 ribozyme); assay type: biochemical, Saccharomyces cerevisiae; conditions: 10 concentrations, highest 100 μM, 1:3 serial dilution
# Protocol: The RNA oligonucleotide substrate for HTS, containing the last 17 nucleotides of the native 5′-exon and the first two nucleotides of the ai5γ intron,[33] was synthesized on a MerMade 12 RNA-DNA synthesizer (BioAutomation) using TBDMS RNA phosphoramidites (TxBio), aminomodifier C6dT, and Black Hole Quencher 2 CPG (Glen Research). For base deprotection, the oligonucleotide was treated with 30% ammonium hydroxide (JT Baker) for 24 h at RT. The 2’–OH deprotection and oligonucleotide purification were carried out as described.[57],[58] Fluorescent labeling of the substrate with the NHS ester of AlexaFluor 555 was carried out as described.[33]
# HTS was carried out by CRL using the fluorescently labeled substrate, unlabeled D135 ribozyme (see above), and a proprietary library of ∼1,50,000 compounds using assay conditions previously described,[33] with the following adaptations. The D135 ribozyme (20 nM final concentration) was first prefolded in a buffer of 50 mM MOPS, pH 7.5, 50 mM MgCl2, and 500 mM KCl at 37 °C for 30 min. Library compounds were then added at 12.5 μM final concentration followed by addition of the substrate (to 15 nM final concentration), and the reaction mixtures were incubated at 37 °C for 40 min. Reactions were was quenched by addition of urea (2.67 M final) and analyzed as described. […]
# C. parapsilosis = assay: MIC determination for C. parapsilosis (CLSI M27-A3); assay type: cell-based, Candida parapsilosis; conditions: for MIC C. parapsilosis: Supplementary table 1; for MIC: Lodderomyces parapsilosis
# Protocol: C. parapsilosis [strain American Type Culture Collection (ATCC) 22019] was purchased from ATCC and cultured according to the manufacturer’s instructions. S. cerevisiae wild-type (NP40-36a) and mtDNA intronless (XPM46) strains were a gift from Dr. Thomas Fox (Dept. of Molecular Biology and Genetics, Cornell University).[44] MICs for C. parapsilosis were determined as previously described[33] according to the guidelines from the protocol M27-A3 from the Clinical and Laboratory Standards Institute (CLSI).[59] All experiments were performed in triplicate.
# [2] = system: COX1 intronless S. cerevisiae strain; assay: Inhibition of S. cerevisiae growth, COX1 intronless strain; assay type: cell-based, Saccharomyces cerevisiae
# Protocol: (§1) C. parapsilosis [strain American Type Culture Collection (ATCC) 22019] was purchased from ATCC and cultured according to the manufacturer’s instructions. S. cerevisiae wild-type (NP40-36a) and mtDNA intronless (XPM46) strains were a gift from Dr. Thomas Fox (Dept. of Molecular Biology and Genetics, Cornell University).[44]
# (§2) Reduction of yeast growth in the presence of inhibitor molecules was assayed either in liquid YPD media (BD Bacto Yeast Extract, BD Bacto Peptone, 2% glucose) or in YPG media (BD Bacto Yeast Extract, BD Bacto Peptone, 3% glycerol), as previously described[33],[34],[59] with the following adaptations. Yeast cultures were grown for 24 h in YPD medium and for […] in YPG medium. All experiments were performed in triplicate to ensure reproducibility.
# WT S. cerevisiae strain = assay: Inhibition of S. cerevisiae growth, WT strain; assay type: cell-based, Saccharomyces cerevisiae
# Protocol: as §1, §2
# [3] = system: C. parapsilosis COX1 precursor mRNA splicing; assay: In cellulo analysis of group II intron splicing by qRT-PCR; assay type: cell-based, Candida parapsilosis; conditions: compound 64 μg/mL, PGK1 as standard
# Protocol: C. parapsilosis (ATCC: 22019) growth and harvest was performed essentially as described[33] with the following modifications. Compounds dissolved in DMSO were added to individual cultures to a final concentration of 64 μg/mL. Total RNA was isolated using an E.Z.N.A Fungal RNA Mini Kit (Omega Bio-tek) according to the manufacturer’s protocol. The RNA was eluted in 50 μL of a 1:100 mixture of SUPERaseIn RNase inhibitor (Thermo Fisher): MOPS-EDTA (ME) buffer [10 mM MOPS (pH 6.5), 0.1 mM Na-EDTA (pH 8.5)] followed by DNase treatment with RQ1 DNase (Promega) for 30 min at 37 °C. Then, the reaction was mixed with 7 μL of 3 M NaOAc and precipitated with 80% EtOH at –20 °C. The recovered RNA was resuspended in 30 μL of 1:100 mixture of SUPERaseIn RNase inhibitor/ME buffer. Next, 200 ng of Random Hexamer Primers (Thermo Fisher) was annealed to 10 ng of RNA in 11 μL at 65 °C for 5 min. The annealing reaction mixture was then cooled to RT, followed by the addition of 9 μL of a SuperScript III (Thermo Fisher) master mix: 1X First Strand Synthesis Buffer, 0.5 mM dNTPs (NEB: N0447S), 5 mM DTT, 10U SUPERaseIn RNase inhibitor, and 100 U SuperScript III. Manufacturer reverse transcription conditions were used, followed by an inactivation step at 75 °C for 15 min. After reverse transcription, RNA was degraded by adding 1.5 μL of a 1:1:1 mixture of RNase H (NEB), RNase A (NEB), and RNase T1 (Thermo Fisher) and incubating at 37 °C for 30 min. The cDNA was then purified using AMPure beads (Beckman Coulter) at a 1.8× bead-to-sample ratio according to the manufacturer’s protocol. Purified cDNA was eluted in 30 μL of nuclease-free water. Real-time PCR quantification of cDNA and subsequent determination of the relative levels of PGK1, COX1 (total), and COX1 (unspliced) from different conditions were performed in duplicate with three independent samples as previously described.[33]
# ai5γ group II intron [4] = biological target: ai5γ group II intron; design: method as in PMID 30323219; conditions: for comparison; read-out: Ki of previously published inhibitors; cited from earlier work
# [5] = system: C. parapsilosis COX1 precursor mRNA splicing; design: method as in PMID 30323219; conditions: for comparison; cited from earlier work
# [6] = Figure 3, 100 mM MgCl2, 500 mM KCl, 42 °C, read-out: Ki for the in vitro splicing of the ai5γ intron
# [7] = Supplementary table 1, read-out: Ki ai5γ intron
structure (smiles),measurement,setting,value
"C[C@@H]1[C@H](O)[C@@H](C)/C=C/C=C/C=C/C=C/C=C/C=C/C=C/[C@H](O[C@@H]2O[C@H](C)[C@@H](O)[C@H](N)[C@@H]2O)C[C@@H]2O[C@](O)(C[C@@H](O)C[C@@H](O)[C@H](O)CC[C@@H](O)C[C@@H](O)CC(=O)O[C@H]1C)C[C@H](O)[C@H]2C(=O)O [amphotericin B, reference compound]",IC50,HEK-293T cells,2.6 ± 0.2 mg/L
COc1ccc(Nc2nc(-c3ccccn3)nc3ccccc23)cc1 [compound 1],Ki,ai5γ group II intron [1]; [6],27 ± 6 µM
same,IC50,D135 ribozyme,3 µM
COc1cccc(CNc2nc(-c3ccccn3)nc3ccccc23)c1 [compound 2],Ki,ai5γ group II intron [1]; [7],55 ± 19 µM
same,MIC C. parapsilosis,C. parapsilosis,> 128 mg/L
c1ccc(CNc2nc(-c3ccccn3)nc3ccccc23)cc1 [compound 3],Ki,ai5γ group II intron [1]; [7],77 ± 25 µM
COc1ccc(Nc2ncnc3ccccc23)cc1 [compound 4],Ki,ai5γ group II intron [1]; [7],> 100 µM
COc1cccc(CNc2ncnc3ccccc23)c1 [compound 5],Ki,ai5γ group II intron [1]; [7],> 100 µM
same,MIC C. parapsilosis,C. parapsilosis,16 mg/L
c1ccc(Nc2ncnc3ccccc23)cc1 [compound 6],Ki,ai5γ group II intron [1]; [7],> 100 µM
c1ccc(CNc2ncnc3ccccc23)cc1 [compound 7],Ki,ai5γ group II intron [1]; [7],> 100 µM
Nc1nc(-c2ccccn2)nc2ccccc12 [compound 8],Ki,ai5γ group II intron [1]; [7],> 100 µM
c1ccc(-c2ncc3ccccc3n2)nc1 [compound 9],Ki,ai5γ group II intron [1]; [7],> 100 µM
CC(C)(C)c1ccc(Nc2nc(-c3ccccn3)nc3ccccc23)cc1 [compound 10],Ki,ai5γ group II intron [1]; [7],11 ± 2 µM
same,MIC,C. parapsilosis,2 to 8 mg/L
CC(C)(C)c1ccc(Nc2nc(-c3ccncc3)nc3ccccc23)cc1 [compound 11],inhibitory activity in the splicing assay (in words),ai5γ group II intron [1],completely abolishes activity
same,Ki,ai5γ group II intron [1]; [7],> 100 µM
c1ccc(-c2nc(Nc3ccc4c(c3)OCO4)c3ccccc3n2)nc1 [compound 12],Ki,ai5γ group II intron [1]; [7],11 ± 2 µM
same,increase in inhibitory activity relative to compound 1,ai5γ group II intron [1]; vs compound 1,3 fold
c1ccc(-c2nc(N3Cc4ccccc4C3)c3ccccc3n2)nc1 [compound 14],Ki,ai5γ group II intron [1]; [7],7.6 ± 1.7 µM
same,MIC S. cerevisiae intronless strain,[2],32 mg/L
same,growth inhibition of WT vs COX1 intronless S. cerevisiae strain,WT S. cerevisiae strain; WT more strongly inhibited than intronless strain,eight-fold
same,MIC S. cerevisiae WT strain,WT S. cerevisiae strain; WT strain,4 mg/L
CC(C)(C)c1cccc(CNc2nc(-c3ccccn3)nc3ccccc23)c1 [compound 15],Ki,ai5γ group II intron [1]; [7],6.4 ± 1.9 µM
same,improvement of inhibitory activity (Ki) relative to compound 3,ai5γ group II intron [1],more than 10 fold
FC(F)(F)c1cccc(CNc2nc(-c3ccccn3)nc3ccccc23)c1 [compound 16],Ki,ai5γ group II intron [1]; [7],5.6 ± 0.6 µM
same,improvement of inhibitory activity (Ki) relative to compound 3,ai5γ group II intron [1],more than 10 fold
same,MIC,[2]; Saccharomyces cerevisiae,64 mg/L
same,MIC in C. parapsilosis,C. parapsilosis,4 mg/L
same,MIC,C. parapsilosis,2 to 8 mg/L
same,MIC,WT S. cerevisiae strain; Saccharomyces cerevisiae,16 mg/L
same,effect on splicing of C. parapsilosis COX1 (unspliced relative to total COX1 mRNA),[3],moderate defects
same,IC50,HEK-293T cells,5.6 ± 0.1 mg/L
Clc1cccc(CNc2nc(-c3ccccn3)nc3ccccc23)c1 [compound 17],Ki,ai5γ group II intron [1]; [7],2.6 ± 0.5 µM
same,improvement of inhibitory activity (Ki) relative to compound 3,ai5γ group II intron [1],30 fold
same,MIC in C. parapsilosis,C. parapsilosis,2 mg/L
same,MIC,C. parapsilosis,2 to 8 mg/L
same,effect on splicing of C. parapsilosis COX1 (unspliced relative to total COX1 mRNA),[3],moderate defects
same,IC50,HEK-293T cells,3.9 ± 0.1 mg/L
FC(F)(F)c1cccc(CNc2nc(-c3ccccn3)nc3cc(Cl)ccc23)c1 [compound 18],Ki,ai5γ group II intron [1]; [7],20 ± 6 µM
same,drop in inhibitory activity relative to compound 16,ai5γ group II intron [1]; vs compound 16,four-fold
Clc1cccc(CNc2nc(-c3ccccn3)nc3cc(Cl)ccc23)c1 [compound 19],Ki,ai5γ group II intron [1]; [6],1.4 ± 0.4 µM
same,effect on splicing of C. parapsilosis COX1 (unspliced relative to total COX1 mRNA),[3],remained unchanged
CC(=O)c1ccc(-c2ccc3oc(C(=O)c4cc(O)c(O)c(O)c4)cc3c2)cc1 [intronistat A],Ki,ai5γ group II intron [4],2.1 ± 0.2 µM
O=C(NCCN1CCCC1)c1ccc2oc(C(=O)c3cc(O)c(O)c(O)c3)cc2c1 [intronistat B],levels of unspliced vs total C. parapsilosis COX1 transcripts,[5],1.5 fold
same,Ki,ai5γ group II intron [4],0.36 ± 0.02 µM
